Measurements reported in EP4417202A1, “ANTI-CANCER ACTION OF BAG1-SELECTIVE IMIDAZOPYRIDINE COMPOUNDS IN STEROID HORMONE RECEPTOR-POSITIVE BREAST AND PROSTATE CANCER” (Karlsruher Institut für Technologie, priority 2023, dated 2024).

Tests used:
[1] = system: BAG1 in a complex with mortalin; test: Co-immunoprecipitation in MCF-7 cells; assay type: cell-based; conditions: 1 µM, 48 h
Experimental: (§1) Cells were harvested, washed with PBS, and lysed using NP-40 lysis buffer. Protein A agarose beads (Thermo Fisher Scientific) were mixed with protein G agarose beads (Thermo Fisher Scientific) (4:1) and preincubated overnight at 4°C with anti-p53 or anti-BAG1 or control IgG antibody. Cellular extracts from X15695 treated and untreated cells (1,000 µg) were incubated with antibody-preincubated protein A/G agarose beads for 3 to 4 h at room temperature. The beads with immunoprecipitated proteins were collected at 4°C by centrifugation at 1,000 g for 5 min and washed 4 to 5 times with NP-40 lysis buffer. The immunoprecipitated proteins were eluted by heating in SDS sample buffer for 5 min at 95°C and resolved on SDS-PAGE. Thereafter, they were subjected to Western blot analysis to detect mortalin, BAG1, BAG2, BAG5 and p53. Cellular extracts containing 50 to 70 µg protein from X15695 treated and untreated cells were used as the input control for the targeted proteins.

p53/mortalin complex = test: Co-immunoprecipitation in MCF-7 cells; assay type: cell-based; conditions: 1 µM, 48 h
Experimental: as §1

p53 = test: Immunofluorescence assay, cellular localization of p53; assay type: cell-based; conditions: MCF-7 cells, 1 µM
Experimental: For immunofluorescence assay, MCF-7, T47D, 22Rv.1, LAPC-4 and LNCaP cells (10^4 each) were seeded on coverslips in a 24-well plate and the desired treatment applied. After three times washing with PBS, cells were fixed with 4% paraformaldehyde solution for 10 min at room temperature. Next, the cells were washed three times with PBS and permeabilized with 0.5% Triton X-100 for 10 min at room temperature. Following three additional washing steps with PBS, cells were treated with 5% bovine serum albumin (w/v) for 1 h at room temperature and subjected to overnight incubation with the primary antibody p53 (DO1 clone or Sp5, Thermo Fisher Scientific), ERα (F-10, Santa-Cruz) or mortalin (D-9, Santa-Cruz) and then washed three times with PBS followed by incubation with goat anti-mouse IgG, Alexa Fluor™ 488 antibody and/or goat anti-rabbit IgG, Alexa Fluor™ 546 antibody (Thermo Fisher Scientific) for 1 h at room temperature in the dark. All subsequent steps were performed in the dark. Cells were washed 3 times with PBS and stained with 0.1 µg/ml DAPI (Thermo Fisher Scientific) solution at 1:10,000 (v/v) dilution for 15 min at room temperature. After three times washing with PBS the cells were mounted in Mowiol® 4-88 on microscope slides and observed by laser-scanning confocal microscopy (Confocal Microscope platform […]6-LSM900, […], Germany).

MCF-7 and T47D cells = test: Apoptosis assessment, 7-AAD and Annexin V double staining; assay type: cell-based; conditions: 1 µM, 48 h
Experimental: Induction of apoptosis in response to treatment with X15695 was analyzed in MCF-7 and T47D cells using PE Annexin V Apoptosis Detection Kit with 7-AAD (BD Bioscience, San Diego, CA, USA) according to the manufacturer's protocol. In short, cells were harvested by trypsinization, and single cell suspensions (1×10^6 cells) were prepared as described above in 100 µl PBS. Cells were stained with 5 µl PE Annexin V and 5 µl 7-AAD for 15 min at room temperature in the dark. Subsequently, 400 µl PBS were added to each sample and flow cytometry measurements were performed within one hour. Cells stained with PE Annexin V or 7-AAD alone were used for compensation. Flow cytometry analysis was performed using BD FACSAria (BD Biosciences, Franklin Lakes, NJ, USA). Flow cytometry data were analyzed using FlowJo 10.8.1 cytometry analysis software (FlowJo, LLC).

LNCaP and LAPC-4 cells = test: Apoptosis by automated high-throughput microscopy (Hoechst / propidium iodide); assay type: cell-based; conditions: 48 h
Experimental: Apoptosis in LNCaP and LAPC-4 cells was measured using an automated high-throughput microscopy method known in the art. In brief, LNCaP and LAPC4 cells (5×10^3) were seeded in a 96-well plate format. Cells were treated with 10^-9 - 10^-6 M X15695, DMSO or etoposide (250 µM) for 48h. Cells were stained with Hoechst 33342 (0,15 µg/ml) and propidium iodide (PI) (0,25 µg/ml) for 30 min at 37°C. Four brightfield and fluorescence images were acquired from different positions in each well using an automated Olympus IX81 fluorescence microscope (Olympus, Hamburg, Germany). The Hoechst dye was detected at excitation 350 nm and emission 450 nm and PI dye was detected at 488 nm and 590 nm. The total number of cells (all Hoechst-stained nuclei) as well as the number of early apoptotic, late apoptotic, and necrotic cells (combination of Hoechst and PI nuclei intensity) was obtained by analyzing images with the scan^R software (version 2.7.3, Olympus, Hamburg, Germany).

[2] = system: TRMCF-7 cells (tamoxifen resistant MCF-7 cells); test: MTT cell viability assay; assay type: cell-based; conditions: 48 h
Experimental: […] Cells transfected with siRNA were incubated for 72 h after X15695 addition. Thereafter, the medium was exchanged for a fresh medium containing 0.5 mg/ml MTT (Sigma-Aldrich) and incubated at 37°C for 1 h to 4 h (depending on cell line) until intracellular purple formazan crystals were formed. The MTT solution was removed, and the purple crystals were dissolved in isopropanol and the optical absorbance at 595 nm was recorded using SpectraMax iD3, Molecular Devices, San Jose, CA, USA.

AR = test: Western blot of AR level in prostate cancer cells; assay type: cell-based; conditions: LNCaP and 22Rv.1 cells, 24 h
Experimental: For Western blotting, cells were lysed in NP-40 lysis buffer (1% NP-40, 50 mM Tris-HCl, pH 8.0, 150 mM NaCl, 5 mM EDTA) or 1× passive lysis buffer (Promega, Germany) for 15 min on ice. Cell debris was removed by centrifugation at 13,000 rpm for 10 min and used for SDS-polyacrylamide gel electrophoresis (PAGE) and Western blotting.
Western Blotting was carried out using standard protocols with antibodies: p53 (clone DO1), p53 (Sp5, Thermo Fisher Scientific Karlsruhe, Germany), Mdm2 (4B2, Abcam, Cambridge, UK). […] Secondary goat anti-mouse and goat anti-rabbit antibodies were purchased from DAKO (Bollschweil, Germany).

ERα = conditions: MCF-7 cells, 1 µM for 24 h, then 100 µg/ml cycloheximide; > 120 min in the absence of X15695
Experimental: Thereafter, cells were incubated with the protein synthesis inhibitor cycloheximide (100 µg/ml) and harvested at time points 0, 30, 60, 90 and 120 min. Cells were lysed and used for Western blotting to determine the ERα level at each time point.

Fc1ccc(-c2cn3cc(C(F)(F)F)cc(Cl)c3n2)cc1 [Compound X15695, 8-Chloro-2-(4-fluorophenyl)-6-(trifluoromethyl)imidazo[1,2-a]pyridine]
BAG1-mortalin interaction [1]: indeed decreased this interaction
p53-mortalin interaction (p53/mortalin complex): decreased this interaction
cellular localization of p53 (p53): accumulated in the nucleus as early as 8 h after X15695 treatment
apoptosis (MCF-7 and T47D cells): increased number of the cells in the late stage of apoptosis
apoptosis (LNCaP and LAPC-4 cells): No apoptotic effect
inhibition of viability [2]: comparable activities
AR level (AR): did not strongly downregulate AR level
ERα half-life (ERα): about 60 min
